Assay: in vivo
Settings: rat, po, 20 mg/kg
Experimental: Chromatographic Conditions: • Column: Synergi Fusion-RP 80, 2×50 mm, 4 microns
Mobile Phase: • Channel A: 13.3 mM ammonium formate/6.7 mM formic acid in water • Channel B: 6 mM ammonium formate/3 mM formic acid in water/acetonitrile (1/9, v/v)
• Plot of the curve/obtaining the plasma profile=plasma concentration as a function of the time post administration

- AUC: 7190 ng·h/mL
- Cmax: 2280 ng/mL
- Tmax: 30 min
Structure (SMILES): CC(C)Cc1ccc(C(C)C(=O)O)cc1 (stereo not drawn) [IBU alone, ibuprofen]

— patent US20100087392A1 (Pierre Fabre Medicament, priority 2007, published 2010)
